Publication PMC5698418 (Nature Communications, 2017)
Substitutions are numbered along the chain they refer to. Numbers in names are those of the source. Structures can show the parent of a compound that is named as a salt. Where two headings read alike, the source gives them in different places. Starred links: 1 amine or outer side, 2 acyl side, 3 side chain; linkers in the order of their positions; H or OH if unused. Positions of bridges follow the written chain, without caps; N, C: chain ends. Non-standard residues stand in square brackets, D forms with d. Residues, ends and D or L forms follow the SMILES beside them. Chains are numbered I, II in the order given. Actinocin(9to1) = Cc1c2oc3c(C)ccc(C(=O)[*:1])c3nc-2c(C(=O)[*:2])c(N)c1=O; NMeV = CN[C@H](C(=O)O)C(C)C; Sar = CNCC(=O)O

B1: WT: wild-type mouse Arc-Myc-FLAG protein overexpressed in Neuro2a cells (protein, UniProt Q9WV31 1-396, looked up)
Activity-regulated …: MELDHMTTGGLHAYPAPRGGPAAKPNVILQIGKCRAEMLEHVRRTHRHLLTEVSKQVERELKGLHRSVGKLENNLDGYVPTGDSQRWKKSIKACLCRCQETIANLERWVKREMHVWREVFYRLERWADRLESMGGKYPVGSEPARHTVSVGVGGPEPYCQEADGYDYTVSPYAITPPPAAGELPEQESVEAQQYQSWGPGEDGQPSPGVDTQIFEDPREFLSHLEEYLRQVGGSEEYWLSQIQNHMNGPAKKWWEFKQGSVKNWVEFKKEFLQYSEGTLSREAIQRELELPQKQGEPLDQFLWRKRDLYQTLYVDAEEEEIIQYVVGTLQPKLKRFLRHPLPKTLEQLIQRGMEVQDGLEQAAEPSGTPLPTEDETEALTPALTSESVASDRTQPE
modifications: Myc-FLAG tag
B2: K55Q: acetyl-mimic/unmodifiable mutant Arc-Myc-FLAG, lysine 55 to glutamine (protein, UniProt Q9WV31 1-396, looked up, variant K55Q)
Activity-regulated …: B1 Activity-regulated … with K55Q
modifications: Myc-FLAG tag
notes: acetyl-mimic/unmodifiable mutant Arc-Myc-FLAG, lysine 55 to glutamine
B3: K33Q: acetyl-mimic/unmodifiable mutant Arc-Myc-FLAG, lysine 33 to glutamine (protein, UniProt Q9WV31 1-396, looked up, variant K33Q)
Activity-regulated …: B1 Activity-regulated … with K33Q
modifications: Myc-FLAG tag
notes: acetyl-mimic/unmodifiable mutant Arc-Myc-FLAG, lysine 33 to glutamine

Tests used:
[1] = test system: nuclear Arc in primary cortical neurons; test: Low-throughput nuclear Arc immunofluorescence assay (coverslips, Map2-positive cells); assay type: cell-based, mouse; settings: co-treated with BDNF 6 h; k252a 100 nM, ActD 2 ng ml−1, CHX 50 µg ml−1, U0126 10 µM
Text: Next, using fluorescent immunocytochemistry we assessed to what extent the observed induction of total Arc protein expression measured by western blotting corresponded to an accumulation of Arc in the nucleus of our cultured neurons. We chose to focus on nuclear Arc at this point based on the assumption that it would provide a robust and easily tractable phenotype for testing a large set of compounds with the help of a quantitative, single-cell level, high-content, image-based screen. […] On the other hand, many but not all of the neurons in cultures that were treated with BDNF for 6 h had high levels of Arc in their nuclei (Fig. 2b). […] Finally, to further evaluate the sensitivity of our method to quantify nuclear Arc expression, we tested four pharmacological inhibitors predicted to prevent BDNF-induced Arc expression. […] These experimental results with known mechanism of action compounds critically guided the design and interpretation of the chemogenomic screen performed next.
Indirect immunofluorescence detection of antigens was carried out using cortical neurons cultured on poly-L-lysine/laminin-coated coverslips in 24-well plates at a density of 0.1 × 10^7 per well. After experimental treatment, cells were washed twice with PBS and fixed for 30 min at room temperature with 4% paraformaldehyde in PBS. After fixation, cells were washed twice with PBS, permeabilized with PBST (PBS + 0.25% Triton X-100) for 20 min, blocked in blocking solution (PBS + 5% normal goat serum) for another 30 min, and finally incubated overnight at 4 °C with the first primary antibody in blocking solution. The next day, coverslips were extensively washed with PBS and incubated for 2 h at room temperature in the appropriate fluorophore-conjugated secondary antibody solution (Alexa 488- or Alexa 594-conjugated secondary antibody (Molecular Probes, Invitrogen) in blocking solution). After washing with PBS, the coverslips were incubated again overnight in primary antibody solution for the second antigen, and the procedure for conjugation of the fluorophore-conjugated secondary antibody was repeated as above. Finally, cell nuclei were counterstained with 4′,6-diamidino-2-phenylindole (DAPI), and coverslips were mounted on glass slides with ProLong Antifade reagent (Invitrogen).
Cells cultured on coverslips from three independent biological replicates were imaged with an IN Cell Analyzer 6000 high-performance laser-based confocal imaging system and a ×40 objective (GE Healthcare Life Sciences, Marlborough, MA). Image preparation, assembly, and analysis were performed with ImageJ (NIH) and Photoshop CS. Change in contrast and evenness of the illumination was applied equally to all images presented in the study. The following procedure was used for low-throughput measurements. First, original raw tiff files were opened in ImageJ, the nucleus of all neurons in the image was located based on Map2 immunostaining, then average pixel intensity corresponding to Arc immunofluorescence was measured for a 30-pixel spot positioned at the center of the nuclear compartment. Second, for each measure of Arc nuclear immunofluorescence pixel intensity, a measure of background pixel intensity from the same image channel was acquired and subsequently subtracted from the Arc nuclear immunofluorescence pixel intensity value. Finally, Arc immunofluorescence signal from untreated samples was used to establish an objective threshold (two standard deviations above the nuclear Arc immunofluorescence signal averaged from a representative population of untreated neurons) and allow comparison of nuclear Arc expression between different experimental conditions.

[2] = test system: BDNF-induced nuclear Arc expression in primary cortical neurons; test: Chemogenomic screen: high-content image-based assay of BDNF-induced nuclear Arc expression (96-well); assay type: cell-based, mouse
Summary of the method: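 Nuclear Arc immunofluorescence is quantified automatically within an acetyl-H3K9-defined nuclear mask from ×40 images. Cultures are DIV13 mouse forebrain cortical neurons seeded at 30,000 per well and exposed to BDNF plus compound at a final 16.7 µM, with triplicate biological replicates.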

[3] = test system: Neuro2a cells; settings: for Fold-change to WT: protein half-life in Neuro2a
Text: Next, we aimed to determine whether the K24, K33, K55, and K70 residues participate in Arc protein turnover. […] We also included K70 in this experiment because of its position in the coiled-coil and nuclear retention domains of Arc (Fig. 5e) as well as its relative proximity to K55. For this test, we used site-directed mutagenesis to generate plasmids that would allow overexpression of an acetyl-mimic/unmodifiable mutant Arc-Myc-FLAG protein (lysine (K) to glutamine (Q) mutant) for each of these four sites. After transfecting sets of Neuro2a cells with these different constructs, we inhibited translation with CHX and monitored overexpressed protein levels for up to 6 h after.
Lysates were collected at the indicated time points and Arc-Myc-FLAG protein level analyzed in every sample by western blotting with an anti-FLAG antibody. Representative western blots are presented on top and quantification of data normalized to corresponding β-actin and presented as percentage of Arc-Myc-FLAG level (±SEM) at the initial time point after CHX application (t = 0). Curve represents exponential decay fit. b Estimate of protein half-life Arc for WT Arc-Myc-FLAG and each acetyl-mimic mutant is presented in table. c WT and acetyl-mutant Arc-Myc-FLAG polyubiquitination was determined in lysates from overexpressing Neuro2a cells. Lysates were immunoprecipitated with anti-FLAG and western blotted with anti-Ub or anti-Arc as indicated.
Neuro2A cells were cultured in DMEM (supplemented with 10% fetal bovine serum (Gemini-Bio-Products, West Sacramento, CA), penicillin (50 units ml^−1), and streptomycin (50 µg ml^−1)) and transfected overnight using Lipofectamine 2000 (Invitrogen) according to the manufacturer’s protocol. The Neuro2A cell line was generously shared by Dr. Grace Gill.
The pCMV6-Arc-Myc-DDK (FLAG) plasmid (MR206218) was purchased from OriGene Biotechnologies (Rockville, MD). The Arc-Myc-FLAG K24Q, K24R, K33Q, K55Q, K70Q, and K70R plasmids were generated with the help of the Q5 Site-Directed Mutagenesis Kit from New England BioLabs (Ipswich, MA) using WT pCMV6-Arc-Myc-FLAG as template. All constructs were verified by DNA sequencing.

[4] = chemogenomic (SMART) screen, BDNF-induced nuclear Arc expression, primary cortical neurons, BDNF control 19.5
[5] = BDNF-induced nuclear Arc expression, primary cortical neurons, chemogenomic screen
[6] = nuclear Arc-positive cells relative to DMSO + BDNF control, negative values = decrease

Molecule | Percentage of cell with nuclear Arc immunostaining above 2σ threshold [2, 4] [%] | Fold-change — Normalized to DMSO control (BDNF) [2, 6] [fold] | other results
COC(=O)[C@@]1(O)C[C@H]2O[C@]1(C)n1c3ccccc3c3c4c(c5c6ccccc6n2c5c31)C(=O)NC4 [K252a] | – | – | effect on BDNF-induced increase of nuclear Arc [1]: effectively prevented the increase of nuclear Arc
C[C@@H]1C[C@@H]([C@H](O)CC2CC(=O)NC(=O)C2)C(=O)[C@@H](C)C1 [cycloheximide] | – | – | effect on BDNF-induced increase of nuclear Arc [1]: effectively prevented the increase of nuclear Arc
Cc1c2oc3c(C)ccc(C(=O)N[C@@H]4C(=O)N[C@H](C(C)C)C(=O)N5CCC[C@H]5C(=O)N(C)CC(=O)N(C)[C@@H](C(C)C)C(=O)O[C@@H]4C)c3nc-2c(C(=O)N[C@@H]2C(=O)N[C@H](C(C)C)C(=O)N3CCC[C@H]3C(=O)N(C)CC(=O)N(C)[C@@H](C(C)C)C(=O)O[C@@H]2C)c(N)c1=O [actinomycin D] (I: T[dV]P[Sar][NMeV] / II: T[dV]P[Sar][NMeV]; ester I:1-I:C, II:1-II:C; linker I:N-II:N via Actinocin(9to1)) | – | – | effect on BDNF-induced increase of nuclear Arc [1]: effectively prevented the increase of nuclear Arc
CCOC(=O)C1=C[C@]2(CC)CCCN3CCc4c(n1c1ccccc41)[C@@H]32 [Vinpocetine] | 12.5 | – | –
O=c1c(O)c(-c2ccc(O)c(O)c2)oc2cc(O)cc(O)c12 [Sophoretin] | – | – | Percentage of cell with nuclear Arc immunostaining above 2σ threshold [2, 5]: 9.3%
COc1ccc(CN(CCN(C)C)c2ccccn2)cc1 [Pyrilamine maleate] | 25.2 | 1.3 | –
Cc1nccn1CC1CCc2c(c3ccccc3n2C)C1=O (stereo not drawn) [Ondansetron] | 37.6 | 1.9 | –
CN(C)CC/C=C1/c2ccccc2Sc2ccc(Cl)cc21 [Chlorprothixene] | – | – | Percentage of cell with nuclear Arc immunostaining above 2σ threshold [2, 5]: 1.0%
CHIR-98014 | – | – | Fold-change — Normalized to DMSO control (BDNF) [2]: -1.0 fold; Percentage of cell with nuclear Arc immunostaining above 2σ threshold [2]: 19.2%
Clc1cccc(Cl)c1N=C1NCCN1 [Clonidine] | 12.2 | – | –
COc1ccc2[nH]cc(CCNC(C)=O)c2c1 [Melatonin] | 25.2 | 1.3 | –
Nc1c2c(nc3ccccc13)CCCC2 [Tacrine] | – | – | Percentage of cell with nuclear Arc immunostaining above 2σ threshold [2, 5]: 8.3%
NC(=O)CCC/N=C(\c1ccc(Cl)cc1)c1cc(F)ccc1O [Progabide] | 19.5 | 1.0 | –
CN1CCN(CCCN2c3ccccc3Sc3ccc(C(F)(F)F)cc32)CC1 [Trifluoperazine] | – | – | Percentage of cell with nuclear Arc immunostaining above 2σ threshold [2, 5]: 0.0%
O=C(O)C1CCCNC1 (stereo not drawn) [Nipecotic acid] | – | 1.4 | Percentage of cell with nuclear Arc immunostaining above 2σ threshold [2]: 26.3%
Clc1ccc2nsnc2c1NC1=NCCN1 [Tizanidine] | 35.8 | 1.8 | –
CCOC(=O)[C@H](CCc1ccccc1)N[C@@H](C)C(=O)N1CCC[C@H]1C(=O)O [Enalapril] | 22.4 | 1.1 | –
Cl.O=C(O)C1=CCCN(CCON=C(c2ccccc2)c2ccccc2)C1 [NNC 711 hydrochloride] | – | 1.1 | Percentage of cell with nuclear Arc immunostaining above 2σ threshold [2]: 21.4%
N[C@@H]1C[C@H]1c1ccccc1 [Tranylcypromine hydrochloride] | 26.6 | 1.4 | –
CN1CCN(C2=Nc3ccccc3Oc3ccc(Cl)cc32)CC1 [Loxapine] | 21.2 | 1.1 | –
CN1[C@@H]2CC[C@H]1C[C@@H](OC(=O)c1c[nH]c3ccccc13)C2 [Tropisetron] | 28.5 | 1.5 | –
B1 | – | – | Estimated t½ [3]: 2.77 h; Fold-change to WT [3]: 1.00
B2 | – | – | Estimated t½ [3]: 2.40 h; Fold-change to WT [3]: −1.15
B3 | – | – | Estimated t½ [3]: 2.63 h; Fold-change to WT [3]: −1.05
